System: diabetes patients
Experiment: Clinical experiment examples: fasting blood glucose of diabetes patients
Type: in vivo, human
Excerpt: In another preferred embodiment of the present invention, the tea bricks after the above-mentioned about 2-year aging time are pulled apart and left in the air for about 30 days for oxidization. After the loosen tea leaves are oxidized for about 30 days, they are smashed into small particles or powders. And then another 5 parts (by weight) to 15 parts (by weight) of blended tangerine peels are taken and smashed into particles or powders. The above-mentioned tangerine peels, in particles or powders form, are blended into the above-mentioned black teas, in particles or powders form. Then the composition can be used as the traditional Chinese medical tea drinks for treating diabetes. General patients can drink the tea once or twice a day, each time 5-10 grams. Severe patients can drink twice a day, each time 10-20 grams.
Clinical Experiment Examples
Oct. 23, 2016: fasting blood glucose was 8.9 mml. The patient administrated metformin, three times a day, one tablet each time before meals.
Oct. 29, 2016: the value of fasting blood glucose was 6.8 mml, and the traditional Chinese medicine tea drinks of the present invention were administrated twice a day, each time 5 grams of the tea, with the continuation of administration of the metformin.
Subject: The patient is a person, who has a long history of diabetes. Before drinking the traditional Chinese medicine tea drinks of the present invention, the subject administrated hypoglycemic agents (metformin) for long before each meal, each time 2 tablets. Test results (measured on empty stomach at 7 o'clock in the morning)
From the above case, it can be seen that only administration of metformin to decrease blood glucose would not lead to a good controlling effect, and the average value of blood glucose was 12.3 mml with a large fluctuation that varies from the 8.5 mml to the highest 19.5 mml After drinking the traditional Chinese medicine tea drinks of the present invention (brewing 1 to 2 bags every day), the average value of blood glucose was 8.6 mml with a steady trend where the values were fluctuated within 7-10 mml without the occurrence of very high measured results.

CN(C)C(=N)N=C(N)N [metformin]
fasting blood glucose (Case 1, Oct. 23, 2016, metformin three times a day, one tablet before meals (first day reported)): 8.9 mml | fasting blood glucose (Case 1, Oct. 24, 2016, metformin only): 7.5 mml | fasting blood glucose (Case 1, Oct. 25, 2016, metformin only): 7.4 mml | fasting blood glucose (Case 1, Oct. 26, 2016, metformin only, big dinner and wine the evening before): 8.3 mml | fasting blood glucose (Case 1, Oct. 29, 2016, on metformin, day the tea drinks (twice a day, 5 grams) were started): 6.8 mml | measured average value of blood glucose (Case 1, metformin, 9 days from October 20 to October 29): 7.5 mml | blood glucose measured on empty stomach at 7 o'clock in the morning (Case 2, metformin only (2 tablets before each meal), Aug. 24, 2016): 9.4 mml | blood glucose measured on empty stomach at 7 o'clock in the morning (Case 2, metformin only, Aug. 28, 2016): 9.9 mml | blood glucose measured on empty stomach at 7 o'clock in the morning (Case 2, metformin only, Dec. 2, 2016): 11.8 mml | blood glucose measured on empty stomach at 7 o'clock in the morning (Case 2, metformin only, Dec. 9, 2016): 12.6 mml | blood glucose measured on empty stomach at 7 o'clock in the morning (Case 2, metformin only, Dec. 14, 2016): 11.9 mml | blood glucose measured on empty stomach at 7 o'clock in the morning (Case 2, metformin only, Dec. 18, 2016): 12.3 mml | blood glucose measured on empty stomach at 7 o'clock in the morning (Case 2, metformin only, Dec. 24, 2016): 12.5 mml | blood glucose measured on empty stomach at 7 o'clock in the morning (Case 2, metformin only, Dec. 28, 2016): 14.7 mml | blood glucose measured on empty stomach at 7 o'clock in the morning (Case 2, metformin only, Jan. 2, 2017): 13.3 mml | blood glucose measured on empty stomach at 7 o'clock in the morning (Case 2, metformin only, Jan. 6, 2017): 11.8 mml | blood glucose measured on empty stomach at 7 o'clock in the morning (Case 2, metformin only, Nov. 1, 2016): 14.5 mml | blood glucose measured on empty stomach at 7 o'clock in the morning (Case 2, metformin only, Nov. 5, 2016): 13.4 mml | blood glucose measured on empty stomach at 7 o'clock in the morning (Case 2, metformin only, Nov. 10, 2016): 11.1 mml | blood glucose measured on empty stomach at 7 o'clock in the morning (Case 2, metformin only, Nov. 13, 2016): 13 mml | blood glucose measured on empty stomach at 7 o'clock in the morning (Case 2, metformin only, Nov. 18, 2016): 14 mml | blood glucose measured on empty stomach at 7 o'clock in the morning (Case 2, metformin only, Nov. 20, 2016): 8.5 mml | blood glucose measured on empty stomach at 7 o'clock in the morning (Case 2, metformin only, Nov. 27, 2016): 9.4 mml | blood glucose measured on empty stomach at 7 o'clock in the morning (Case 2, metformin only, Oct. 1, 2016): 11 mml | blood glucose measured on empty stomach at 7 o'clock in the morning (Case 2, metformin only, Oct. 4, 2016): 12.7 mml | blood glucose measured on empty stomach at 7 o'clock in the morning (Case 2, metformin only, Oct. 11, 2016): 15.9 mml | blood glucose measured on empty stomach at 7 o'clock in the morning (Case 2, metformin only, Oct. 24, 2016): 19.5 mml | blood glucose measured on empty stomach at 7 o'clock in the morning (Case 2, metformin only, Sep. 3, 2016): 12.5 mml | blood glucose measured on empty stomach at 7 o'clock in the morning (Case 2, metformin only, Sep. 11, 2016): 8.7 mml | blood glucose measured on empty stomach at 7 o'clock in the morning (Case 2, metformin only, Sep. 23, 2016): 11.6 mml | average value of blood glucose (Case 2, only administration of metformin): 12.3 mml

— patent publication US11207366B2, “Traditional Chinese medicine composition comprising dried tangerine peels and dark tea for treating diabetes and preparation method thereof” (priority 2017, dated 2021)
